Measurements published in US20180133190A1, “MONOACYLGLYCEROLS AND FAT-SOLUBLE NUTRIENTS FOR USE IN THE TREATMENT OF NUTRIENT DEFICIENCY FROM MALDIGESTION” (NESTEC S.A., priority 2013, published 2018).

Tests used:
[1] = lipid maldigestion or malabsorption rat model (XENICAL-induced): EPA level in red blood cell lipids; format: in vivo, rats
Procedure: The concept was tested in a lipid maldigestion or malabsorption rat model. The maldigestion or malabsorption condition was obtained using XENICAL® (ORLISTAT), a pancreatic and gastric lipases inhibitor (tetrahydrolipstatin; see FIG. 7). Rats were fed during 21 days with long-chain polyunsaturated fatty acid (LC-PUFA) supplements containing mainly eicosapentaenoic (EPA) acid. Fish oil was used as a source of triacylglycerols, and different EPA glycerides were evaluated. XENICAL® (ORLISTAT) was given at a level sufficient to decrease lipid absorption by 40%. A group receiving fish oil without XENICAL® (ORLISTAT) was used as a positive control. At different time intervals (D3, D7, […]), the fatty acid profiles of red blood cell and plasma lipids were determined. At the end of the experiment, the fatty acid profiles of different tissues were determined. The main objective was to follow the level of EPA in red blood cell and plasma lipids. The main comparison evaluated was the difference in EPA level between the group receiving EPA-containing sn-1(3) MAG in combination with XENICAL® (ORLISTAT) and the positive control group (fish oil+XENICAL® (ORLISTAT)). […] This comparison corroborates the validity of the model.

[2] = clinical study: delivery of EPA under lipid maldigestion conditions induced by XENICAL (ORLISTAT); format: in vivo, humans
Procedure: This clinical study compared the efficacy of sn-1(3) MAG and fish oil (TAG) in delivering EPA in humans under lipid maldigestion conditions induced by XENICAL® (ORLISTAT). The comparison was tested in volunteers having a BMI of 37-40 kg/m2 and treated with XENICAL® (ORLISTAT) to induce lipid maldigestion or not treated with XENICAL® (ORLISTAT). The primary objective was to assess accretion of EPA in erythrocytes over 21 days when consumed as fish oil (TAG) or sn-1(3) MAG. The secondary objectives were to assess accretion of EPA in plasma over 21 days and also to assess the pharmacokinetics of EPA after an acute dose either in the form of sn-1(3) MAG or TAG (AUC in chylomicrons over 10 hours postprandial).

| SMILES | EPA incorporation in red blood cells, effect of lipase inhibitor ([1]; rats fed fish oil with vs without XENICAL (ORLISTAT), day 7, FIG. 2) | incorporation of LC-PUFAs in tissue ([1]; rats, conditions of lipid maldigestion or malabsorption) | level of EPA incorporated in red blood cells vs fish oil group (without XENICAL) ([1]; rats, with XENICAL (ORLISTAT), day 7, FIG. 2) | level of EPA incorporated in red blood cells vs fish oil + XENICAL (ORLISTAT) group ([1]; rats, with XENICAL (ORLISTAT), day 7, all P values lower than 0.05, FIG. 2) | chronic effect: accretion of EPA in erythrocytes after 21 days ([2]; humans, with XENICAL (ORLISTAT), in comparison to fish oil and XENICAL, p=0.0001, FIG. 5) | chronic effect: accretion of EPA in plasma after 21 days ([2]; humans, with XENICAL (ORLISTAT), relative to fish oil and XENICAL, p=0.0003, FIG. 6) | carrier for EPA compared with fish oil (TAG) ([2]; obese subjects treated with XENICAL (ORLISTAT)) |
| --- | --- | --- | --- | --- | --- | --- | --- |
| CCCCCCCCCCC[C@@H](C[C@@H]1OC(=O)[C@H]1CCCCCC)OC(=O)[C@H](CC(C)C)NC=O [XENICAL® (ORLISTAT), tetrahydrolipstatin, reference compound] | decreases EPA incorporation in red blood cells |  |  |  |  |  |  |
| CC/C=C\C/C=C\C/C=C\C/C=C\C/C=C\CCCC(=O)OCC(O)CO (stereo not shown) [sn-1(3) MAG that contained EPA, sn-1(3)-monoeicosapentaenoylglycerol] |  | the incorporation in tissue is improved | even higher than the fish oil group | statistically higher | statistically significant | statistically significant | better carrier for EPA than fish oil (TAG) |
